# Measured values taken from patent publication US6365753B1, “Phthalimides and herbicide containing the same as active component” (Mitsubishi Chemical Corporation, priority 1998, dated 2002).
# System: Echinochloa crus-galli
# Assay: Submerged treatment test
# Format: in vivo
# Conditions: 10 g/a active ingredient, treated 5th day from sowing, examined on the 2.8th day from treatment, herbicidal index
# Method: (§1) Alluvial soil from a paddy field was put in a resin-made pot having an area of 200 cm^2. After fertilization, an adequate amount of water was added, and the soil was puddled and leveled. Seeds of Echinochloa crus-galli, Monochoria vaginalis, Rotala indica and Scirpus juncoides were sowed within a layer 0.5 cm below the surface of the soil. Water was poured onto the soil to keep a water depth of 3.5 cm.
# (§2) On the 5th day from the sowing, the emulsifiable concentrate containing the compound of the invention as an active ingredient which was prepared in Formulation Example 3 was diluted with water. A prescribed amount of the diluted composition was dropped to the water so as to give 10 g of the active ingredient per are.
# (§3) Cultivation was continued in a greenhouse, and the herbicidal effect was examined on the […] from the treatment. The results obtained are shown in Table 4 (the compound numbers in Table 4 correspond to those in Tables 1 and 2). The herbicidal effect was evaluated in terms of herbicidal index based on Y(%) obtained from equation:
# (§4) y=[1−(Weight of weeds above the ground in a treated pot)/(Weight of weeds above the ground in a non-treated pot)]×100 (%)
# Further: ranges in brackets are in %.
row,SMILES,Herbicidal Effect Echinochloa crus-galli
1,CN(C)C(=O)C(Cl)Cc1cc(N2C(=O)c3ccccc3C2=O)c(F)cc1Cl (stereo not shown) [Compound 14],5 (91-100)
2,"CCOC(=O)C(Cl)Cc1cc(N2C(=O)c3ccc(F)cc3C2=O)c(F)cc1Cl (stereo not shown) [Compound 15, Ethyl 2-Chloro-3-[2-chloro-4-fluoro-5-(4-fluorophthalimido)phenyl]propionate]",4 (71-90)

# System: Monochoria vaginalis
# Assay: Submerged treatment test
# Format: in vivo
# Conditions: 10 g/a active ingredient, treated 5th day from sowing, examined on the 2.8th day from treatment, herbicidal index
# Method: as §1, §2, §3, §4
row,SMILES,Herbicidal Effect Monochoria vaginalis
1,CN(C)C(=O)C(Cl)Cc1cc(N2C(=O)c3ccccc3C2=O)c(F)cc1Cl (stereo not shown) [Compound 14],5 (91-100)
2,"CCOC(=O)C(Cl)Cc1cc(N2C(=O)c3ccc(F)cc3C2=O)c(F)cc1Cl (stereo not shown) [Compound 15, Ethyl 2-Chloro-3-[2-chloro-4-fluoro-5-(4-fluorophthalimido)phenyl]propionate]",5 (91-100)

# System: Rotala indica
# Assay: Submerged treatment test
# Format: in vivo
# Conditions: 10 g/a active ingredient, treated 5th day from sowing, examined on the 2.8th day from treatment, herbicidal index
# Method: as §1, §2, §3, §4
row,SMILES,Herbicidal Effect Rotala indica
1,CN(C)C(=O)C(Cl)Cc1cc(N2C(=O)c3ccccc3C2=O)c(F)cc1Cl (stereo not shown) [Compound 14],5 (91-100)
2,"CCOC(=O)C(Cl)Cc1cc(N2C(=O)c3ccc(F)cc3C2=O)c(F)cc1Cl (stereo not shown) [Compound 15, Ethyl 2-Chloro-3-[2-chloro-4-fluoro-5-(4-fluorophthalimido)phenyl]propionate]",5 (91-100)

# System: Scirpus juncoides
# Assay: Submerged treatment test
# Format: in vivo
# Conditions: 10 g/a active ingredient, treated 5th day from sowing, examined on the 2.8th day from treatment, herbicidal index
# Method: as §1, §2, §3, §4
row,SMILES,Herbicidal Effect Scirpus juncoides
1,CN(C)C(=O)C(Cl)Cc1cc(N2C(=O)c3ccccc3C2=O)c(F)cc1Cl (stereo not shown) [Compound 14],3 (51-70)
2,"CCOC(=O)C(Cl)Cc1cc(N2C(=O)c3ccc(F)cc3C2=O)c(F)cc1Cl (stereo not shown) [Compound 15, Ethyl 2-Chloro-3-[2-chloro-4-fluoro-5-(4-fluorophthalimido)phenyl]propionate]",3 (51-70)

# System: Chenopodium album
# Assay: Soil treatment test pre-emergence application
# Format: in vivo
# Conditions: 10 g/a active ingredient, 28th day from treatment, herbicidal index
# Method: (§5) Volcanic ash soil from a field was put in a resin-made pot having an area of 200 cm^2. After fertilization, soil previously mixed uniformly with the seeds of Digitaria ciliaris, Setaria viridis, Chenopodium album and Polygonum lapathifolium was scattered on the soil. The emulsifiable concentrate comprising the compound of the invention as an active ingredient which was obtained in Formulation Example 3 was diluted with water, and a prescribed amount of the diluted composition was sprayed uniformly to the surface of the soil by means of a small-sized power pressure spray to give 10 g of the active ingredient per are.
# (§6) Thereafter, cultivation was continued in a greenhouse, and the herbicidal effect was examined on the 28th day from the treatment. The results obtained are shown in Table 5 (the compound numbers in Table 5 correspond to those in Tables 1 and 2). The herbicidal effect was evaluated based on the same criteria as in Test Example 1.
row,SMILES,Herbicidal Effect Chenopodium album
1,"COC(=O)C(Cl)Cc1cc(N2C(=O)c3ccccc3C2=O)c(F)cc1Cl (stereo not shown) [Compound 4, Methyl 2-Chloro-3-(2-chloro-4-fluoro-5-phthalimidophenyl)propionate]",5 (91-100)
2,CC(C)CNC(=O)C(Cl)Cc1cc(N2C(=O)c3ccccc3C2=O)c(F)cc1Cl (stereo not shown) [Compound 11],5 (91-100)
3,CN(C)C(=O)C(Cl)Cc1cc(N2C(=O)c3ccccc3C2=O)c(F)cc1Cl (stereo not shown) [Compound 14],5 (91-100)
4,"CCOC(=O)C(Cl)Cc1cc(N2C(=O)c3ccc(F)cc3C2=O)c(F)cc1Cl (stereo not shown) [Compound 15, Ethyl 2-Chloro-3-[2-chloro-4-fluoro-5-(4-fluorophthalimido)phenyl]propionate]",5 (91-100)

# System: Digitaria ciliaris
# Assay: Soil treatment test pre-emergence application
# Format: in vivo
# Conditions: 10 g/a active ingredient, 28th day from treatment, herbicidal index
# Method: as §5, §6
row,SMILES,Herbicidal Effect Digitaria ciliaris
1,"COC(=O)C(Cl)Cc1cc(N2C(=O)c3ccccc3C2=O)c(F)cc1Cl (stereo not shown) [Compound 4, Methyl 2-Chloro-3-(2-chloro-4-fluoro-5-phthalimidophenyl)propionate]",0 (0-5)
2,CC(C)CNC(=O)C(Cl)Cc1cc(N2C(=O)c3ccccc3C2=O)c(F)cc1Cl (stereo not shown) [Compound 11],4 (71-90)
3,CN(C)C(=O)C(Cl)Cc1cc(N2C(=O)c3ccccc3C2=O)c(F)cc1Cl (stereo not shown) [Compound 14],3 (51-70)
4,"CCOC(=O)C(Cl)Cc1cc(N2C(=O)c3ccc(F)cc3C2=O)c(F)cc1Cl (stereo not shown) [Compound 15, Ethyl 2-Chloro-3-[2-chloro-4-fluoro-5-(4-fluorophthalimido)phenyl]propionate]",2 (31-50)

# System: Polygonum lapathifolium
# Assay: Soil treatment test pre-emergence application
# Format: in vivo
# Conditions: 10 g/a active ingredient, 28th day from treatment, herbicidal index
# Method: as §5, §6
row,SMILES,Herbicidal Effect Polygonum lapathifolium
1,"COC(=O)C(Cl)Cc1cc(N2C(=O)c3ccccc3C2=O)c(F)cc1Cl (stereo not shown) [Compound 4, Methyl 2-Chloro-3-(2-chloro-4-fluoro-5-phthalimidophenyl)propionate]",5 (91-100)
2,CC(C)CNC(=O)C(Cl)Cc1cc(N2C(=O)c3ccccc3C2=O)c(F)cc1Cl (stereo not shown) [Compound 11],5 (91-100)
3,CN(C)C(=O)C(Cl)Cc1cc(N2C(=O)c3ccccc3C2=O)c(F)cc1Cl (stereo not shown) [Compound 14],5 (91-100)
4,"CCOC(=O)C(Cl)Cc1cc(N2C(=O)c3ccc(F)cc3C2=O)c(F)cc1Cl (stereo not shown) [Compound 15, Ethyl 2-Chloro-3-[2-chloro-4-fluoro-5-(4-fluorophthalimido)phenyl]propionate]",5 (91-100)

# System: Setaria viridis
# Assay: Soil treatment test pre-emergence application
# Format: in vivo
# Conditions: 10 g/a active ingredient, 28th day from treatment, herbicidal index
# Method: as §5, §6
row,SMILES,Herbicidal Effect Setaria viridis
1,"COC(=O)C(Cl)Cc1cc(N2C(=O)c3ccccc3C2=O)c(F)cc1Cl (stereo not shown) [Compound 4, Methyl 2-Chloro-3-(2-chloro-4-fluoro-5-phthalimidophenyl)propionate]",0 (0-5)
2,CC(C)CNC(=O)C(Cl)Cc1cc(N2C(=O)c3ccccc3C2=O)c(F)cc1Cl (stereo not shown) [Compound 11],4 (71-90)
3,CN(C)C(=O)C(Cl)Cc1cc(N2C(=O)c3ccccc3C2=O)c(F)cc1Cl (stereo not shown) [Compound 14],3 (51-70)
4,"CCOC(=O)C(Cl)Cc1cc(N2C(=O)c3ccc(F)cc3C2=O)c(F)cc1Cl (stereo not shown) [Compound 15, Ethyl 2-Chloro-3-[2-chloro-4-fluoro-5-(4-fluorophthalimido)phenyl]propionate]",2 (31-50)

# System: Alopeculus aequalis
# Assay: Foliar treatment test (1) post-emergence application
# Format: in vivo
# Conditions: foliar treatment post-emergence at 1.0- to 2.0-leaf stage, 10 g/a active ingredient, 21st day from treatment; herbicidal index
# Method: (§7) Volcanic ash soil from a field was put in a resin-made pot having an area of 200 cm^2. After fertilization, the seeds of Brassica juncea, Ipomoea purpurea, Echinochloa crus-galli and Alopeculus aequalis were cast on the soil and uniformly covered with the soil.
# (§8) Cultivation was continued in a greenhouse, and when the weeds reached the 1.0- to 2.0-leaf stage, a prescribed amount of the emulsifiable concentrate comprising the compound of the invention as an active ingredient which was prepared in Formulation Example 3 as diluted with water was sprayed uniformly to the weeds by means of a small-sized power pressure spray to give 10 g of the active ingredient per are.
# (§9) Thereafter, cultivation was further continued in the greenhouse, and the herbicidal effect was examined on the 21st day from the treatment. The results obtained are shown in Table 6 (the compound numbers in Table 6 correspond to those in Tables 1 and 2). The herbicidal effect was evaluated based on the same criteria as in Test Example 1.
row,SMILES,Herbicidal Effect Alopeculus sequalis
1,"COC(=O)C(Cl)Cc1cc(N2C(=O)c3ccccc3C2=O)c(F)cc1Cl (stereo not shown) [Compound 4, Methyl 2-Chloro-3-(2-chloro-4-fluoro-5-phthalimidophenyl)propionate]",1 (6-30)
2,CC(C)CNC(=O)C(Cl)Cc1cc(N2C(=O)c3ccccc3C2=O)c(F)cc1Cl (stereo not shown) [Compound 11],4 (71-90)
3,CN(C)C(=O)C(Cl)Cc1cc(N2C(=O)c3ccccc3C2=O)c(F)cc1Cl (stereo not shown) [Compound 14],4 (71-90)
4,"CCOC(=O)C(Cl)Cc1cc(N2C(=O)c3ccc(F)cc3C2=O)c(F)cc1Cl (stereo not shown) [Compound 15, Ethyl 2-Chloro-3-[2-chloro-4-fluoro-5-(4-fluorophthalimido)phenyl]propionate]",4 (71-90)

# System: Brassica juncea
# Assay: as above
# Format: in vivo
# Conditions: foliar treatment post-emergence at 1.0- to 2.0-leaf stage, 10 g/a active ingredient, 21st day from treatment; herbicidal index
# Method: as §7, §8, §9
row,SMILES,Herbicidal Effect Brassica juncea
1,"COC(=O)C(Cl)Cc1cc(N2C(=O)c3ccccc3C2=O)c(F)cc1Cl (stereo not shown) [Compound 4, Methyl 2-Chloro-3-(2-chloro-4-fluoro-5-phthalimidophenyl)propionate]",5 (91-100)
2,CC(C)CNC(=O)C(Cl)Cc1cc(N2C(=O)c3ccccc3C2=O)c(F)cc1Cl (stereo not shown) [Compound 11],5 (91-100)
3,CN(C)C(=O)C(Cl)Cc1cc(N2C(=O)c3ccccc3C2=O)c(F)cc1Cl (stereo not shown) [Compound 14],5 (91-100)
4,"CCOC(=O)C(Cl)Cc1cc(N2C(=O)c3ccc(F)cc3C2=O)c(F)cc1Cl (stereo not shown) [Compound 15, Ethyl 2-Chloro-3-[2-chloro-4-fluoro-5-(4-fluorophthalimido)phenyl]propionate]",5 (91-100)

# System: Echinochloa crus-galli
# Assay: as above
# Format: in vivo
# Conditions: foliar treatment post-emergence at 1.0- to 2.0-leaf stage, 10 g/a active ingredient, 21st day from treatment; herbicidal index
# Method: as §7, §8, §9
row,SMILES,Herbicidal Effect Echinochloa crus-galli
1,"COC(=O)C(Cl)Cc1cc(N2C(=O)c3ccccc3C2=O)c(F)cc1Cl (stereo not shown) [Compound 4, Methyl 2-Chloro-3-(2-chloro-4-fluoro-5-phthalimidophenyl)propionate]",2 (31-50)
2,CC(C)CNC(=O)C(Cl)Cc1cc(N2C(=O)c3ccccc3C2=O)c(F)cc1Cl (stereo not shown) [Compound 11],4 (71-90)
3,CN(C)C(=O)C(Cl)Cc1cc(N2C(=O)c3ccccc3C2=O)c(F)cc1Cl (stereo not shown) [Compound 14],3 (51-70)
4,"CCOC(=O)C(Cl)Cc1cc(N2C(=O)c3ccc(F)cc3C2=O)c(F)cc1Cl (stereo not shown) [Compound 15, Ethyl 2-Chloro-3-[2-chloro-4-fluoro-5-(4-fluorophthalimido)phenyl]propionate]",4 (71-90)

# System: Ipomoea purpurea
# Assay: as above
# Format: in vivo
# Conditions: foliar treatment post-emergence at 1.0- to 2.0-leaf stage, 10 g/a active ingredient, 21st day from treatment; herbicidal index
# Method: as §7, §8, §9
row,SMILES,Herbicidal Effect Ipompoea-purpurea
1,"COC(=O)C(Cl)Cc1cc(N2C(=O)c3ccccc3C2=O)c(F)cc1Cl (stereo not shown) [Compound 4, Methyl 2-Chloro-3-(2-chloro-4-fluoro-5-phthalimidophenyl)propionate]",5 (91-100)
2,CC(C)CNC(=O)C(Cl)Cc1cc(N2C(=O)c3ccccc3C2=O)c(F)cc1Cl (stereo not shown) [Compound 11],5 (91-100)
3,CN(C)C(=O)C(Cl)Cc1cc(N2C(=O)c3ccccc3C2=O)c(F)cc1Cl (stereo not shown) [Compound 14],5 (91-100)
4,"CCOC(=O)C(Cl)Cc1cc(N2C(=O)c3ccc(F)cc3C2=O)c(F)cc1Cl (stereo not shown) [Compound 15, Ethyl 2-Chloro-3-[2-chloro-4-fluoro-5-(4-fluorophthalimido)phenyl]propionate]",5 (91-100)
